Source: patent publication US20230192646A1, “DIHYDRO-CYCLOPENTA-ISOQUINOLINE DERIVATIVES” (UCB Biopharma SRL, priority 2019, published 2023)

Target: T1, IgE-Tb / FcεR1α-Y131A-AF488 (soluble IgE receptor FcεR1α with a Y131A mutation) (Homo sapiens, UniProt P0DOX4, C225A/N265Q/N371Q)
T1 construct: 86 nmoles of IgE-Fc(N265Q, N371Q) (Young et al., 1995)
Assay: In vitro FRET assay of IgE-Tb binding to FcεR1α-Y131A-AF488, 2 hours incubation (examples 16 and 89)
Settings: 5 nM IgE-Tb, 25 nM FcεR1α-Y131A-AF488; 2 hours at room temperature; read-out: FRET IC50 range
Method: 86 nmoles of IgE-Fc(N265Q, N371Q) (Young et al., 1995) at 172 μM in 100 mM NaHCO3, pH 9.5 was added to 1 mg of LanthaScreen™ Amine Reactive Tb Chelate (ThermoFisher catalogue number PV3583) and incubated for 16 hours at 20° C. The material was then buffer exchanged into Phosphate Buffered Saline (being, 137 mM NaCl, 2.7 mM KCl, 10 mM Na2HPO4, 1.8 mM K2HPO4, pH 7.4) and the material quantified and the degree of Tb conjugation determined by measuring the absorption at 280 nm and 343 nm.
400 nmoles FcεR1α (Y131A mutant) (Cook et al., 1997) at 400 μM in 100 mM NaOAc pH 5.5 was reacted with 1 mM final concentration sodium periodate (in 100 mM NaOAc, pH 5.5) for 60 minutes at 22° C. […]
175 nmoles of protein was added to 1 mg of Alexa Fluor™ 488 hydrazide (Invitrogen) and incubated for 16 hours at 22° C. […] The protein was buffer exchanged into Phosphate Buffered Saline (being, 137 mM NaCl, 2.7 mM KCl, 10 mM Na2HPO4, 1.8 mM K2HPO4, pH 7.4) and the material quantified and the degree of Alexa Fluor™ 488 conjugation determined by measuring the absorption at 280 nm and 495 nm.
The aim was to measure binding of IgE-Tb to receptor, and the inhibition thereof by compounds, using an in vitro Fluorescence Resonance Energy Transfer (FRET) Assay. […]
Measurement of FRET for each well was carried out by exciting at 330 nm and measuring emission at 495/520 nm using an Envision plate reader (Perkin Elmer). […]

T1 sequence (P0DOX4 224-547 C225A/N265Q/N371Q): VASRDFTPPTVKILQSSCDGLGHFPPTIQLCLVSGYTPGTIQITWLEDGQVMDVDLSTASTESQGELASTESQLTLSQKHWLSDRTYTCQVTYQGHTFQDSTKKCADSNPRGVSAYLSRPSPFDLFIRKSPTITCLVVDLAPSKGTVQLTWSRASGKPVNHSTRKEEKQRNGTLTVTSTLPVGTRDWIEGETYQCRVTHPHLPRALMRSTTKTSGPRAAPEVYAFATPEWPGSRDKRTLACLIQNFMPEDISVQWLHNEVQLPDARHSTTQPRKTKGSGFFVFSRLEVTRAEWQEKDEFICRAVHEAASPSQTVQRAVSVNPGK

SMILES	IC50 [nM]
CCNC(=O)N[C@H]1C[C@H](O)c2cc(S(=O)(=O)NCC(C)C)c3cc(C4CC4)ncc3c21 (racemic) [Example 16, 1-ethyl-3-[trans-(7RS,9RS)-3-cyclopropyl-7-hydroxy-5-(2-methylpropylsulfamoyl)-8,9-dihydro-7H-cyclopenta[h]isoquinolin-9-yl]urea]	100 to 2000
CC(C)(F)CNS(=O)(=O)c1cc2c(c3cnc(C4CC4)cc13)C(N)CC2NC(=O)c1cccnc1 (centres unmarked) [Example 89, N-[9-amino-3-cyclopropyl-5-[(2-fluoro-2-methylpropyl)sulfamoyl]-8,9-dihydro-7H-cyclopenta[h]isoquinolin-7-yl]pyridine-3-carboxamide]	100 to 2000
